Data set [1] concerns KB cells. As to the kind of experiment: cells. It is filed as cell-based. Conditions: Homo sapiens, 72 h, read-out: Cytotoxicity TD50 KB. The method, then: In vitro KB cell cytoxocity assay was done by modification of the crystal violet assay (Grillis et al., Anal Biochem., 159, 109-113 (1986).
KB cells were cultivated in Eagles minimum essential medium supplemented with 10% calf serum and incubated at 37° C. in a humidified 5% CO2 atmosphere to prepare a cell stock. Cells were counted using a neubauer hemocytometer and seeded in 96 well plates at 100 μl of 3×10^4 cells/ml and cultured for one day. Test compounds were diluted and 100 .parallel.l of the solution was added in triplicate wells to give final concentration of 10, 5, 1, 0.5, 0.1, 0.05 and 0.01 μg/ml. Control wells were identical except that test compound was absent. These were cultured for three days. Then the cells were fixed with addition of 20 μl of 25% glutaraldehyde for 15 minutes, washed with water and dried. Then stained with 100 μl of 0.05% crystal violet for 15minutes, washed with water and dried. The wells are eluted with 100 μl of 0.05M NaH2 PO4 /ethanol (1:1 v/v) and read at OD540 on a multiscan spectrophotometer. Inhibition value of cell Growth was calculated based on optical density using the following equation; [formula] TD50 values were calculated from linear recression ines of the log-logit plot.

In data set [2] the test system is L1210 cells. As to the kind of experiment: cells. It is filed as cell-based. Conditions: Mus musculus, L1210, 72 h, read-out: Cytotoxicity TD50 L-1210. As for the experimental part:
Vitro L1210 Cell Cytoxocity Assay
In vitro :L1210 cell cytotoxicity assay was done by the method of microculture tetrazolium assay (Alley et al., Cancer Research, 48, 589-601 (1988).
L1210 cells were cultivated in RPMI 1640 medium supplemented with 10% fetal calf serum and […] of 2-mercaptoethanol at 37° C. in humidified 5% CO2 atmosphere no prepare a cell stock. Cells were counted using neubauer hemocytometer and seed in 96 well plates at 100 μl of 0.5×10^4 cells per ml. The test compounds were diluted and 100 μl of the solution was added in triplicate wells to give the final concentration of 10, 5, 1, 0.5, 0.1, 0.05 and 0.01 μg/ml. Control wells were identical except :hat the test compound was absent. These were cultured for three days. Results were assayed using the microculture tetrazolium assay briefly. 50 μl of MTT formazoan working solution (1:5 v/v in culture medium) was added to each well and cultures were incubated at 37° C. for 4 hrs. Culture plates were centrifuged at low speed for 5 minutes. All but 10-20 μl of culture medium supernatant was removed by slow aspiration and […] and read at OD540 on a multiscan spectrophotometer. Inhibition value of cell growth was calculated based on optical density using the following equation; [formula] TD50 values were calculated from linear depression ines of the log-logit plot.

The subject of data set [3] is Sarcoma 180. As to the kind of experiment: In Vivo Antitumor Activity Against Sarcoma 180. Set-up: species or system male ICR mice. The following applies: s.c. - i.p., days 1, 5 and 9, tumor weight on day 12. As for the experimental part:
The compounds of general formula (I) were tested in vivo against Sarcoma 180 xenografted tumor to mice as illustrated herein after.
Sarcoma 180, 5×10^6 cells were inoculated by S.C. to male ICR mice (6 weeks old) on day 0. Drugs were administered on days 1,5 and 9. Mice were killed and tumor weight was measured on day 12 after transplantation. The percentage inhibition of tumor growth was calculated from the mean tumor weight of the treated group compared with that of the control group. Number of mice used in each group was between 6 to 10.

The conditions of data set [4]: isolation to be done in the dark at low temperatures; cited from earlier work.
The test system of data set [5] is β-lactamase. The following applies: natural metabolites isolated from Streptomyces culture; cited from earlier work.

`O=C(N[C@@H](C[C@@H]1CN2C(=O)C[C@@H]2O1)C(=O)OC(c1ccccc1)c1ccccc1)OCc1ccccc1` (mixture of isomers) [10A, N-Benzyloxycarbonyl-3-[(3RS,5SR)-7-oxo-1-aza-4-oxabicyclo [3.2.0]hept-3-yl]-L-alanine diphenylmethyl ester]: the IC50 was found to be 3.17 µg/mL in data set [1] and 10 µg/mL in data set [2].
On the same counts, the results for `O=C(N[C@H](C[C@@H]1CN2C(=O)C[C@@H]2O1)C(=O)OC(c1ccccc1)c1ccccc1)OCc1ccccc1` (mixture of isomers) [10B, N-(benzyloxycarbonyl)-3-[(3RS,5SR)-7-oxo-1-aza-4-oxabicyclo[3.2.0]hept-3-yl]-D-alanine diphenylmethyl ester] are 1.78 µg/mL and 7.5 µg/mL.
On to `N[C@@H](C[C@@H]1CN2C(=O)C[C@@H]2O1)C(=O)O` (mixture of isomers) [compound 11, 3-[(3RS,5SR)-7-oxo-1-aza-4-oxabicyclo[3,2,0]hept-3-yl]-L-alanine], for which the IC50 came to 0.023 µg/mL in data set [1] and 0.1 µg/mL in data set [2]. The “% Inhibition in 12 days (tumor growth, tumor weight)” value was 71.4% in data set [3] (1.56 mg/kg/day) and 79.5% in data set [3] (3.13 mg/kg/day).
As to `N[C@H](C[C@@H]1CN2C(=O)C[C@@H]2O1)C(=O)O` (mixture of isomers) [compound 12, 3-[(3RS,5SR)-7-oxo-1-aza-4-oxabicyclo[3.2.0]hept-3-yl]-D-alanine], the IC50 in data set [1] was 0.098 µg/mL.
Consider `CC(C)C(N)C(=O)NC(C(=O)O)C(O)C1CN2C(=O)CC2O1` (centres unmarked) [G0069A], for which the chemical stability entry in data set [4] is “chemicalyl unstable”. In addition, the β-lactamase inhibitory properties result in data set [5] is given as “None of the above metabolites exhibited β-lactamase inhibitory properties”.

The values are drawn from US5652234A, “3-(7-oxo-1-aza-4-oxabicyclo[3.2.0]hept-3-yl)alanine derivative as antitumor agent” (Taiho Pharmaceutical Co., Limited, priority 1994, dated 1997).
